Measurements taken from US10323036B2 (Nimbus Lakshmi, Inc., priority 2016, dated 2019).
Like-named read-outs stand apart in the source and are kept apart here.

Target: human TYK2 (JH2domain-pseudokinase) (Homo sapiens (Human), UniProt P29597)
Assay: TYK2 JH2 Domain Binding Assay (KINOMEscan)
Conditions: read-out: JH2 Kd
[1] = Table 5, Tyk2 JH2 Domain Binding Assay

Chain of human TYK2 (JH2domain-pseudokinase) (P29597 556-888): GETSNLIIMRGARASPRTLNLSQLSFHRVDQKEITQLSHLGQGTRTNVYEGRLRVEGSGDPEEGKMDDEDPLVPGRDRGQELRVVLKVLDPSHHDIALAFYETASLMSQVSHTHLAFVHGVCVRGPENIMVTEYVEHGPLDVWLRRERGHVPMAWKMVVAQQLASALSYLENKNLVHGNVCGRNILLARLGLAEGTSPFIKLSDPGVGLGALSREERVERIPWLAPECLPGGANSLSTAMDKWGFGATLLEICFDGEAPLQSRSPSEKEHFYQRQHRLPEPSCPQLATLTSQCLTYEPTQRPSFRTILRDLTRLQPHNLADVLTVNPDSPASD

SMILES	Kd [1] [nM]	Kd (Table 4, JH2 binding assay) [nM]
COc1c(Nc2cc(Nc3cc(C)nc(C)n3)ncc2-c2nnc(CO)o2)cccc1-c1ncn(C)n1 [VIII-14, (5-(6-((2,6-dimethylpyrimidin-4-yl)amino)-4-((2-methoxy-3-(1-methyl-1H-1,2,4-triazol-3-yl)phenyl)amino)pyridin-3-yl)-1,3,4-oxadiazol-2-yl)methanol]	0.1 to 1	–
COc1c(Nc2cc(Nc3cc(C)nc(C)n3)nc3[nH]n(C)c(=O)c23)cccc1-c1ccn(C)n1 [Compound I-123, 6-((2,6-dimethylpyrimidin-4-yl)amino)-4-((2-methoxy-3-(1-methyl-1H-pyrazol-3-yl)phenyl)amino)-2-methyl-1,2-dihydro-3H-pyrazolo[3,4-b]pyridin-3-one]	–	0.1 to 0.5
COCc1ccnc(Nc2cc(Nc3cccc(-c4ncn(C)n4)c3OC)c3c(=O)n(C)[nH]c3n2)c1 [Compound I-15, 4-((2-methoxy-3-(1-methyl-1H-1,2,4-triazol-3-yl)phenyl)amino)-6-((4-(methoxymethyl)pyridin-2-yl)amino)-2-methyl-1,2-dihydro-3H-pyrazolo[3,4-b]pyridin-3-one]	–	0.1 to 0.5
COc1c(Cl)cccc1Nc1cc(Nc2ccc(N3CCCC3=O)c(C#N)n2)nc2[nH]n(C)c(=O)c12 [Compound I-134, 6-((4-((3-chloro-2-methoxyphenyl)amino)-2-methyl-3-oxo-2,3-dihydro-1H-pyrazolo[3,4-]pyridin-6-yl)amino)-3-(2-oxopyrrolidin-1-yl)picolinonitrile]	–	0.1 to 0.5
Cc1ccc(Nc2cc(Nc3ccccc3S(C)(=O)=O)c3c(=O)n(C)[nH]c3n2)nn1 [Compound I-109, 2-methyl-6-((6-methylpyridazin-3-yl)amino)-4-((2-(methylsulfonyl)phenyl)amino)-1,2-dihydro-3H-pyrazolo[3,4-b]pyridin-3-one]	–	0.1 to 0.5
Cc1cc(Nc2cc(Nc3ccc(Cl)cc3S(C)(=O)=O)c3c(=O)n(C)[nH]c3n2)nc(C)n1 [Compound I-199, 4-((4-chloro-2-(methylsulfonyl)phenyl)amino)-6-((2,6-dimethylpyrimidin-4-yl)amino)-2-methyl-1,2-dihydro-3H-pyrazolo[3,4-b]pyridin-3-one]	–	0.1 to 0.5
COc1c(Nc2cc(Nc3cc(C)ccn3)nc3[nH]n(C)c(=O)c23)cccc1-c1ncn(C)n1 [Compound I-18, 4-((2-methoxy-3-(1-methyl-1H-1,2,4-triazol-3-yl)phenyl)amino)-2-methyl-6-((4-methylpyridin-2-yl)amino)-1,2-dihydro-3H-pyrazolo[3,4-b]pyridin-3-one]	–	0.1 to 0.5
CN(c1cc(N2CCC2)ccc1Nc1cc(NC(=O)C2CC2)nc2[nH]n(C)c(=O)c12)S(C)(=O)=O [Compound I-219, N-(4-((4-(azetidin-1-yl)-2-(N-methylmethylsulfonamido)phenyl)amino)-2-methyl-3-oxo-2,3-dihydro-1H-pyrazolo[3,4-b]pyridin-6-yl)cyclopropanecarboxamide]	–	0.1 to 0.5
COc1c(Nc2cc(Nc3cc(C)c(F)cn3)nc3[nH]n(C)c(=O)c23)cccc1C(N)=O [Compound I-106]	–	1 to 10
COc1c(F)cccc1Nc1cc(Nc2ccc(C)cn2)nc2[nH]n(C)c(=O)c12 [Compound I-84, 4-((3-fluoro-2-methoxyphenyl)amino)-2-methyl-6-((5-methylpyridin-2-yl)amino)-1,2-dihydro-3H-pyrazolo[3,4-b]pyridin-3-one]	–	1 to 10
COc1c(F)cccc1Nc1cc(Nc2cccc(N3CC(OC)C3)n2)nc2[nH]n(C)c(=O)c12 [Compound I-94, 4-((3-fluoro-2-methoxyphenyl)amino)-6-((6-(3-methoxyazetidin-1-yl)pyridin-2-yl)amino)-2-methyl-1,2-dihydro-3H-pyrazolo[3,4-b]pyridin-3-one]	–	1 to 10
Cn1[nH]c2nc(NC(=O)C3CC3)cc(Nc3ccc(C4CCC4)cc3S(C)(=O)=O)c2c1=O [Compound I-182, N-(4-((4-cyclobutyl-2-(methylsulfonyl)phenyl)amino)-2-methyl-3-oxo-2,3-dihydro-1H-pyrazolo[3,4-b]pyridin-6-yl)cyclopropanecarboxamide]	–	0.1 to 0.5
COc1c(Nc2cc(NC(=O)C3CC3)ncc2-c2ncc(CO)s2)cccc1-c1ncn(C)n1 [VIII-6, N-(5-(5-(hydroxymethyl)thiazol-2-yl)-4-((2-methoxy-3-(1-methyl-1H-1,2,4-triazol-3-yl)phenyl)amino)pyridin-2-yl)cyclopropanecarboxamide]	10 to 100	–
COc1c(Cl)cccc1Nc1cc(NC(=O)C2CC2)nc2[nH]n(C)c(=O)c12 [Compound I-49, N-(4-((3-chloro-2-methoxyphenyl)amino)-2-methyl-3-oxo-2,3-dihydro-1H-pyrazolo[3,4-b]pyridin-6-yl)cyclopropanecarboxamide]	–	0.5 to 1
COc1c(Nc2cc(Nc3cc(C)ccn3)nc3[nH]n(C)c(=O)c23)cccc1-c1ncc(C)s1 [Compound I-47, 4-((2-methoxy-3-(5-methylthiazol-2-yl)phenyl)amino)-2-methyl-6-((4-methylpyridin-2-yl)amino)-1,2-dihydro-3H-pyrazolo[3,4-b]pyridin-3-one]	–	> 10
COc1ccccc1Nc1cc(NC(=O)C2CC2)nc2[nH]n(C)c(=O)c12 [Compound I-61, N-(4-((2-methoxyphenyl)amino)-2-methyl-3-oxo-2,3-dihydro-1H-pyrazolo[3,4-b]pyridin-6-yl)cyclopropanecarboxamide]	–	1 to 10

SMILES	Kd [1] [nM]	Kd (Table 4, JH2 binding assay) [nM]
COc1c(F)cccc1Nc1cc(Nc2ccc(C3CC3)cn2)nc2[nH]n(C)c(=O)c12 [Compound I-91, 6-((5-cyclopropylpyridin-2-yl)amino)-4-((3-fluoro-2-methoxyphenyl)amino)-2-methyl-1,2-dihydro-3H-pyrazolo[3,4-b]pyridin-3-one]	–	1 to 10
COC1CN(c2cccc(Nc3cc(Nc4ccccc4S(C)(=O)=O)c4c(=O)n(C)[nH]c4n3)n2)C1 [Compound I-140, 6-((6-(3-methoxyazetidin-1-yl)pyridin-2-yl)amino)-2-methyl-4-((2-(methylsulfonyl)phenyl)amino)-1,2-dihydro-3H-pyrazolo[3,4-b]pyridin-3-one]	–	1 to 10
COc1c(Nc2cc(NC(=O)C3CC3)nc3[nH]n(C)c(=O)c23)cccc1-n1nc(C)c(C)n1 [Compound I-149]	–	> 10
COc1c(Nc2cc(Nc3cc(CO)ccn3)nc3[nH]n(C)c(=O)c23)cccc1-c1nnn(C)n1 [Compound I-6, 6-((4-(hydroxymethyl)pyridin-2-yl)amino)-4-((2-methoxy-3-(2-methyl-2H-tetrazol-5-yl)phenyl)amino)-2-methyl-1,2-dihydro-3H-pyrazolo[3,4-b]pyridin-3-one]	–	> 10
COc1c(Nc2cc(Nc3cc(C)nc(C)n3)nc3[nH]n(C)c(=O)c23)cccc1-c1nnn(C)n1 [Compound I-9, 6-((2,6-dimethylpyrimidin-4-yl)amino)-4-((2-methoxy-3-(2-methyl-2H-tetrazol-5-yl)phenyl)amino)-2-methyl-1,2-dihydro-3H-pyrazolo[3,4-b]pyridin-3-one]	–	< 0.1
Cn1[nH]c2nc(Nc3ccccn3)cc(Nc3ccccc3S(C)(=O)=O)c2c1=O [Compound I-142, 2-methyl-4-((2-(methylsulfonyl)phenyl)amino)-6-(pyridin-2-ylamino)-1,2-dihydro-3H-pyrazolo[3,4-b]pyridin-3-one]	–	0.1 to 0.5
COc1c(Cl)cccc1Nc1cc(Nc2cccc(C#N)n2)nc2[nH]n(C)c(=O)c12 [Compound I-99, 6-((4-((3-chloro-2-methoxyphenyl)amino)-2-methyl-3-oxo-2,3-dihydro-1H-pyrazolo[3,4-b]pyridin-6-yl)amino)picolinonitrile]	–	0.5 to 1
Cc1cc(Nc2cc(Nc3ccccc3S(C)(=O)=O)c3c(=O)n(C)[nH]c3n2)nc(C)n1 [Compound I-108, 6-((2,6-dimethylpyrimidin-4-yl)amino)-2-methyl-4-((2-(methylsulfonyl)phenyl)amino)-1,2-dihydro-3H-pyrazolo[3,4-b]pyridin-3-one]	–	0.1 to 0.5
COc1c(Nc2cc(Nc3ccc(N4CCCCC4)cn3)nc3[nH]n(C)c(=O)c23)cccc1-c1ncn(C)n1 [Compound I-24, 4-((2-methoxy-3-(1-methyl-1H-1,2,4-triazol-3-yl)phenyl)amino)-2-methyl-6-((5-(piperidin-1-yl)pyridin-2-yl)amino)-1,2-dihydro-3H-pyrazolo[3,4-b]pyridin-3-one]	–	0.1 to 0.5
COc1c(Nc2cc(NC(=O)C3CC3)nc3[nH]n(C)c(=O)c23)cccc1-c1nnnn1C [Compound I-52]	–	1 to 10
COc1c(Nc2cc(NC(=O)C3CC3)nc3[nH]n(C)c(=O)c23)ccc(C(=O)N2CCCC2)c1F [Compound I-141]	–	1 to 10
COc1c(Cl)cccc1Nc1cc(Nc2cc3n(n2)CCOC3)nc2[nH]n(C)c(=O)c12 [Compound I-221, 4-((3-chloro-2-methoxyphenyl)amino)-6-((6,7-dihydro-4H-pyrazolo[5,1-c][1,4]oxazin-2-yl)amino)-2-methyl-1,2-dihydro-3H-pyrazolo[3,4-b]pyridin-3-one]	–	0.1 to 0.5
Cn1[nH]c2nc(Nc3ccc(C4CC4)cn3)cc(Nc3ccccc3S(C)(=O)=O)c2c1=O [Compound I-143, 6-((5-cyclopropylpyridin-2-yl)amino)-2-methyl-4-((2-(methylsulfonyl)phenyl)amino)-1,2-dihydro-3H-pyrazolo[3,4-b]pyridin-3-one]	–	0.1 to 0.5
COc1c(Cl)cccc1Nc1cc(Nc2ccc(C)c(C#N)n2)nc2[nH]n(C)c(=O)c12 [Compound I-132, 6-((4-((3-chloro-2-methoxyphenyl)amino)-2-methyl-3-oxo-2,3-dihydro-1H-pyrazolo[3,4-b]pyridin-6-yl)amino)-3-methylpicolinonitrile]	–	0.1 to 0.5
COc1cc(CO)ccc1Nc1cc(Nc2cccc(C(F)(F)F)n2)nc2[nH]n(C)c(=O)c12 [Compound I-72, 4-((4-(hydroxymethyl)-2-methoxyphenyl)amino)-2-methyl-6-((6-(trifluoromethyl)pyridin-2-yl)amino)-1,2-dihydro-3H-pyrazolo[3,4-b]pyridin-3-one]	–	1 to 10
COc1c(F)cccc1Nc1cc(Nc2cncc(C#N)n2)nc2[nH]n(C)c(=O)c12 [Compound I-85, 6-((4-((3-fluoro-2-methoxyphenyl)amino)-2-methyl-3-oxo-2,3-dihydro-1H-pyrazolo[3,4-b]pyridin-6-yl)amino)pyrazine-2-carbonitrile]	–	0.5 to 1
